# Earlier results, collected in patent US10968292B2, “Synthetic polymer film whose surface has microbicidal activity, photocurable resin composition, manufacturing method of synthetic polymer film, and sterilization method with use of surface of synthetic polymer film” (SHARP KABUSHIKI KAISHA, priority 2017, dated 2021).
# Conditions: monomers; YES/NO
row,Compound,Water Solubility
1,polyethylene glycol (200) diacrylate [Example M282],YES
2,polyethylene glycol (400) diacrylate [Example M280],YES

# Same assay, conditions: organic acids; water at about 20° C. to about 25° C.
row,Compound,Water Solubility (solubility index)
1,"O=C(O)CCCCCCCCCCC(=O)O [Dodecanedioic Acid, dodecanedioic acid]",7 (Practically insoluble • Not less than 10000 mL)
2,"O=P(O)(O)Oc1ccccc1 [PPA, phenylphosphate]",1 (Very soluble • Less than 1 mL)
3,"O=C(O)CCCCCCC(=O)O [Suberic Acid, octanedioic acid]",5 (Slightly soluble • Equal to or greater than 100 mL and less than 1000 mL)
4,"Cc1cc(C)c(C(=O)O)c(C)c1 [TMBA, 2,4,6-trimethylbenzoic acid]",6 (Very slightly soluble • Equal to or greater than 1000 mL and less than 10000 mL)
